Measurements taken from patent US10590143B2, “Herbicidally active (alkynyl-phenyl)-substituted cyclic dione compounds and derivatives thereof” (Syngenta Limited, priority 2013, dated 2020).
Like-named read-outs stand apart in the source and are kept apart here.

What was measured:
Assay type in all cases: in vivo
[1] = tested on: Echinochloa crus-galli (ECHCG); assay: Biological Example 1 glasshouse assay for herbicidal activity; details: Echinochloa crus-galli, 312 h, 13 days after application, read-out: percentage phytotoxicity ECHCG
Summary of the method: (§1)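 Each species was generally tested as a single plant per application rate and timing, on sand or sandy loam soil. Spraying took place 1 or 8 days after sowing. Phytotoxicity from 0 to 100% was judged by eye at day 13 under controlled glasshouse conditions.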

[2] = tested on: Abutilon theophrasti (ABUTH); assay: as above; details: 312 h, 13 days after application, read-out: percentage phytotoxicity ABUTH
Summary of the method: as §1

[3] = tested on: Alopecurus myosuroides (ALOMY); assay: as above; details: 312 h, 13 days after application, read-out: percentage phytotoxicity ALOMY
Summary of the method: as §1

[4] = tested on: Zea mays (ZEAMX, corn, maize, e.g. volunteer corn); assay: as above; details: Zea mays, 312 h, 13 days after application, read-out: percentage phytotoxicity ZEAMX
Summary of the method: as §1

[5] = tested on: Amaranthus retroflexus (AMARE); assay: as above; details: Amaranthus retroflexus, 312 h, 13 days after application, read-out: percentage phytotoxicity AMARE
Summary of the method: as §1

[6] = tested on: Setaria faberi (SETFA); assay: as above; details: 312 h, 13 days after application, read-out: percentage phytotoxicity SETFA
Summary of the method: as §1

[7] = tested on: Brassica napus (BRSNN, rape); assay: Biological Example 2 glasshouse assay for herbicidal activity; details: Brassica napus, 360 h, post-emergence, 14 or 15 DAA, 0.2% v/v X-77, read-out: percentage phytotoxicity BRSNN
Summary of the method: (§2)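 Glasshouse pots sprayed pre-emergence (1 day after sowing) or post-emergence (~12 days) with active ingredient formulated as IF50 in water plus 0.2% v/v X-77; warm species 24/18 °C, cool species 20/16 °C, 16 h light, 65% humidity. Visual % phytotoxicity scored 14–15 DAA (post) or 20 DAA (pre).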

[8] = tested on: Lolium perenne (LOLPE); assay: as above; details: Lolium perenne, post-emergence, 360 h, 14 or 15 DAA, 0.2% v/v X-77, read-out: percentage phytotoxicity LOLPE
Summary of the method: as §2

What does the source list for `CC#Cc1cc(F)c(C2=C(OC(=O)SCC)C3CCC(C3)C2=O)c(OC)c1` (centres unmarked) [Compound P4]?
pest or weed control at 8 g/ha ([1]; post-emergence, post-emergence): 90%; pest or weed control at 30 g/ha ([1]; post-emergence, post-emergence): 100%; pest or weed control at 250 g/ha ([1]; post-emergence, post-emergence): 100%; pest or weed control at 30 g/ha ([1]; pre-emergence, pre-emergence): 100%; pest or weed control at 250 g/ha ([1]; pre-emergence, pre-emergence): 100%; pest or weed control at 8 g/ha ([2]; post-emergence, post-emergence): 10%; pest or weed control at 30 g/ha ([2]; post-emergence, post-emergence): 20%; pest or weed control at 250 g/ha ([2]; post-emergence, post-emergence): 80%; pest or weed control at 30 g/ha ([2]; pre-emergence, pre-emergence): 0%; pest or weed control at 250 g/ha ([2]; pre-emergence, pre-emergence): 40%; pest or weed control at 8 g/ha ([3]; post-emergence): 80%; pest or weed control at 30 g/ha ([3]; post-emergence): 90%; pest or weed control at 250 g/ha ([3]; post-emergence): 90%; pest or weed control at 30 g/ha ([3]; pre-emergence): 80%; pest or weed control at 250 g/ha ([3]; pre-emergence): 100%; pest or weed control at 8 g/ha ([4]; post-emergence, post-emergence): 100%; pest or weed control at 30 g/ha ([4]; post-emergence, post-emergence): 100%; pest or weed control at 250 g/ha ([4]; post-emergence, post-emergence): 100%; pest or weed control at 30 g/ha ([4]; pre-emergence, pre-emergence): 90%; pest or weed control at 250 g/ha ([4]; pre-emergence, pre-emergence): 100%; pest or weed control at 8 g/ha ([5]; post-emergence, post-emergence): 20%; pest or weed control at 30 g/ha ([5]; post-emergence, post-emergence): 30%; pest or weed control at 250 g/ha ([5]; post-emergence, post-emergence): 20%; pest or weed control at 30 g/ha ([5]; pre-emergence, pre-emergence): 30%; pest or weed control at 250 g/ha ([5]; pre-emergence, pre-emergence): 60%; pest or weed control at 8 g/ha ([6]; post-emergence, post-emergence): 70%; pest or weed control at 30 g/ha ([6]; post-emergence, post-emergence): 80%; pest or weed control at 250 g/ha ([6]; post-emergence, post-emergence): 100%; pest or weed control at 30 g/ha ([6]; pre-emergence, pre-emergence): 60%; pest or weed control at 250 g/ha ([6]; pre-emergence, pre-emergence): 90%; plant injury at 30 g/ha [7]: 50%; plant injury at 250 g/ha [7]: 80%; pest or weed control at 30 g/ha [8]: 90%; pest or weed control at 250 g/ha [8]: 100%

`CC#Cc1cc(F)c(C2=C(OC(=O)c3ccccc3)C3CCC(C3)C2=O)c(OC)c1` (centres unmarked) [Compound P5, [3-(2-fluoro-6-methoxy-4-prop-1-ynyl-phenyl)-4-oxo-2-bicyclo[3.2.1]oct-2-enyl]benzoate] was tested. Which pest or weed control at 8 g/ha ([1]; post-emergence, post-emergence) did it give?
The pest or weed control at 8 g/ha was 90%.

And the pest or weed control at 30 g/ha ([1]; post-emergence, post-emergence)?
The pest or weed control at 30 g/ha was 100%.

What about the pest or weed control at 250 g/ha ([1]; post-emergence, post-emergence) of the same compound?
Its pest or weed control at 250 g/ha is 100%.

And the pest or weed control at 30 g/ha ([1]; pre-emergence, pre-emergence)?
Its pest or weed control at 30 g/ha is 80%.

What about the pest or weed control at 250 g/ha ([1]; pre-emergence, pre-emergence) of the same compound?
The pest or weed control at 250 g/ha was 100%.

And the pest or weed control at 8 g/ha ([2]; post-emergence, post-emergence)?
The pest or weed control at 8 g/ha was 0%.

And the pest or weed control at 30 g/ha ([2]; post-emergence, post-emergence)?
The pest or weed control at 30 g/ha was 10%.

What about the pest or weed control at 250 g/ha ([2]; post-emergence, post-emergence) of the same compound?
Its pest or weed control at 250 g/ha is 80%.

What about the pest or weed control at 30 g/ha ([2]; pre-emergence, pre-emergence) of the same compound?
Its pest or weed control at 30 g/ha is 0%.

What about the pest or weed control at 250 g/ha ([2]; pre-emergence, pre-emergence) of the same compound?
Its pest or weed control at 250 g/ha is 60%.

What about the pest or weed control at 8 g/ha ([3]; post-emergence) of the same compound?
Its pest or weed control at 8 g/ha is 70%.

And the pest or weed control at 30 g/ha ([3]; post-emergence)?
The pest or weed control at 30 g/ha was 90%.

What about the pest or weed control at 250 g/ha ([3]; post-emergence) of the same compound?
The pest or weed control at 250 g/ha was 90%.

And the pest or weed control at 30 g/ha ([3]; pre-emergence)?
The pest or weed control at 30 g/ha was 70%.

What about the pest or weed control at 250 g/ha ([3]; pre-emergence) of the same compound?
The pest or weed control at 250 g/ha was 100%.

And the pest or weed control at 8 g/ha ([4]; post-emergence, post-emergence)?
The pest or weed control at 8 g/ha was 100%.

What about the pest or weed control at 30 g/ha ([4]; post-emergence, post-emergence) of the same compound?
Its pest or weed control at 30 g/ha is 100%.

And the pest or weed control at 250 g/ha ([4]; post-emergence, post-emergence)?
The pest or weed control at 250 g/ha was 100%.

And the pest or weed control at 30 g/ha ([4]; pre-emergence, pre-emergence)?
The pest or weed control at 30 g/ha was 80%.

What about the pest or weed control at 250 g/ha ([4]; pre-emergence, pre-emergence) of the same compound?
The pest or weed control at 250 g/ha was 100%.

And the pest or weed control at 8 g/ha ([5]; post-emergence, post-emergence)?
Its pest or weed control at 8 g/ha is 0%.

And the pest or weed control at 30 g/ha ([5]; post-emergence, post-emergence)?
The pest or weed control at 30 g/ha was 0%.

And the pest or weed control at 250 g/ha ([5]; post-emergence, post-emergence)?
Its pest or weed control at 250 g/ha is 20%.

And the pest or weed control at 30 g/ha ([5]; pre-emergence, pre-emergence)?
The pest or weed control at 30 g/ha was 20%.

What about the pest or weed control at 250 g/ha ([5]; pre-emergence, pre-emergence) of the same compound?
The pest or weed control at 250 g/ha was 70%.

What about the pest or weed control at 8 g/ha ([6]; post-emergence, post-emergence) of the same compound?
The pest or weed control at 8 g/ha was 60%.

And the pest or weed control at 30 g/ha ([6]; post-emergence, post-emergence)?
The pest or weed control at 30 g/ha was 80%.

What about the pest or weed control at 250 g/ha ([6]; post-emergence, post-emergence) of the same compound?
Its pest or weed control at 250 g/ha is 90%.

What about the pest or weed control at 30 g/ha ([6]; pre-emergence, pre-emergence) of the same compound?
Its pest or weed control at 30 g/ha is 60%.

What about the pest or weed control at 250 g/ha ([6]; pre-emergence, pre-emergence) of the same compound?
The pest or weed control at 250 g/ha was 80%.

What about the plant injury at 30 g/ha [7] of the same compound?
Its plant injury at 30 g/ha is 50%.

What about the plant injury at 250 g/ha [7] of the same compound?
Its plant injury at 250 g/ha is 80%.

And the pest or weed control at 30 g/ha [8]?
The pest or weed control at 30 g/ha was 80%.

What about the pest or weed control at 250 g/ha [8] of the same compound?
The pest or weed control at 250 g/ha was 100%.
